Test results taken from a melting point compilation (Tetko et al.; mined from patent text by program, amines drawn as free bases though some values may be those of a salt).

| SMILES | melting point |
| --- | --- |
| COc1cc(C)c2c(c1)C(=O)CCC2 | 55 °C |
| CN(C)CC(=O)N(C)c1cccc(-c2ccnc3c(C(=O)c4ccccc4)cnn23)c1 | 166 to 168 °C |
| CCCCCCCCCCC(=O)OCCCCCC(=O)CC(=O)c1ccccc1 | 37 to 38 °C |
| COc1ccc(-n2c(CC(=O)O)c(C(=O)O)c3cc(Oc4ccc(S(C)(=O)=O)cc4)ccc32)cc1 | 222 °C |
| CCOC(=O)C(=Cc1ccccc1)S(N)(=O)=O | 88 to 89 °C |
| CC(=O)Nc1ccc2c(c1)C(=O)CC1(CCN(Cc3ccc([N+](=O)[O-])cc3)CC1)O2 | > 250 °C |
| O=C1OC(Cc2ccccc2)CN1c1ccccc1 (configuration not stated) | 90 °C |
| CC(C(=O)CCl)c1cccc(C(=O)c2ccccc2)c1 (configuration not stated) | 60 °C |
| Nc1nccnc1OCc1cccnc1 | 120 to 122 °C |
| CCCCc1ccc(C(=O)C(CC(=O)N[C@@H](Cc2cc(F)cc(F)c2)[C@H](O)CNCc2cccc(CC)c2)Cc2ccccc2)cc1 (some centres not stated) | 42 to 45 °C |
| COc1ccc2c(c1)CCC1C2CCC2(C)C(O)C(C)CC12 (configuration not stated) | 100 to 102 °C |
| C#CCn1c(C(F)(F)F)c(CO)c2ccccc21 | 90 °C |
| Cc1ccc2c(c1)C(C(Cl)(Cl)Cl)OC(C(Cl)(Cl)Cl)O2 (configuration not stated) | 134 to 135 °C |
| O=C(Cc1ccc(Cl)cc1)c1ccc(Br)cc1 | 128 to 129 °C |
| Cc1ccc(C2=NN=CNC2C)cc1 (configuration not stated) | 246 °C |
| CCc1cccc2[nH]c(=O)oc(=O)c12 | 202 to 204 °C |
| Cc1nnc(NCCNC2CN3CCC2CC3)c2cc3ccccn3c12 (configuration not stated) | 205 to 208 °C |
| COc1ccc(C2=NN(c3ccc(C4=NNC(=O)CC4C)cc3)C(=O)C3CC=CCC23)cc1Cl (configuration not stated) | 198 to 201 °C |
| N#Cc1ccccc1-c1ccc(CC(NC(=O)Nc2ccccc2S(=O)(=O)N2CCCCC2)C(=O)O)cc1 (configuration not stated) | 140 °C |
| CCCC1CCC2c3ccc(OCC)c(F)c3OC2C1 (configuration not stated) | 128 °C |
| N#Cc1cn(CC(O)CCl)nc1[N+](=O)[O-] (configuration not stated) | 78 to 80 °C |
| CC(C)NC1=C(Cl)NC(N)(C(=O)NC#N)C=N1 (configuration not stated) | 232 °C |
| CCOc1ccc(Nc2c([N+](=O)[O-])cc([N+](=O)[O-])c(Cl)c2C(=O)O)cc1 | 202 to 206 °C |
| CCOP(=O)(Cc1cccc(-c2nc(=O)c3ccccc3s2)n1)OCC | 116 °C |
| O=C(Nc1n[nH]c2nc(Oc3ccc(F)cc3F)ncc12)C1CCCC1 | 206 to 208 °C |
| CC(C)=CC(=O)N[C@H]1CC[C@H](CCN2CCN(c3nccc4c3CCO4)CC2)CC1 | 164 °C |

| SMILES | melting point |
| --- | --- |
| CCCCCCCCCOc1ccc(-c2ccc(Br)cc2)c(F)c1F | 46 to 47.5 °C |
| CCC(Sc1cc2ccccc2n1C)(C(=O)OC)c1ccccc1 (configuration not stated) | 90 to 91 °C |
| CCOC(=O)C(C#N)c1ncccc1N (configuration not stated) | 118 to 119 °C |
| COc1ccc(CN2C(=O)[C@@H](Cl)[C@H]2[C@@H]2COC(C)(C)O2)c(OC)c1 | 140 to 142 °C |
| NNc1cc2ccccc2cc1C(=O)O | > 300 °C |
| COc1cc(OC)cc(N2CCN(C(=O)Nc3cc4c(nc3OC)CCC4)CC2)c1 | 143 to 144 °C |
| COCc1ccc2sc(C(=O)OC)c(C)c2c1 | 88 to 89 °C |
| O=S(=O)(CC(F)(F)F)Nc1cccc2c1CCCC2c1c[nH]cn1 (single isomer, unassigned; (+)) | > 260 °C |
| CC(C)(C)OC(=O)N1CCC(Oc2ccccc2C(C)(C)C)CC1 | 102 to 103 °C |
| CCC=NNC(=O)c1cc(OC)cc(Oc2cccc(C(F)(F)F)c2)n1 | 154 to 155 °C |
| CCCCCCCCCCCCCCc1ccc(CC)c(O)c1 | 59 to 60 °C |
| CC(=O)Nc1cc(Cl)c(C(C#N)c2ccc(Cl)c(C(F)(F)F)c2)c(Cl)c1 (configuration not stated) | 172 °C |
| CC(C)c1nn2ccccc2c1C(=O)C1CCCC1 | 106 to 110 °C |
| COc1nc2ccc(Br)cc2cc1C(c1ccccc1)n1ccnc1 (configuration not stated) | 161 to 162 °C |
| Nc1ccc2c(=O)n3c(nc2c1)C(=Cc1ccccc1)CCC3 | 190 to 193 °C |
| O=c1ccn2c(n1)CN=C(c1ccccc1)c1cc(Cl)ccc1-2 | 208 to 209 °C |
| CCCCc1ccc(Oc2ccc(C#CC(C)N(O)C(N)=O)o2)cc1 (configuration not stated) | 116 to 118 °C |
| CCc1c(C(N)=O)sc(SC)c1-c1oncc1C | 93.5 to 94.5 °C |
| CCCCCS(=O)(=O)NC(=O)/C=C/c1ccc(OCCOC)cc1OCC1CCCCC1 | 97.5 to 98.3 °C |
| CC(=O)OCC1CCCn2c(cc3ccccc32)C1 (configuration not stated) | 65 °C |
| CC(=O)C(C)(C(C)=O)C(C)=O | 33 to 35 °C |
| CNC(=O)n1nc(Oc2ccc([N+](=O)[O-])c(C(F)(F)F)c2)cc1C | 139 to 141 °C |
| Cc1ccc(-c2cn(C)cc(-c3ccccc3)c2=O)c(C)c1 | 153 to 155 °C |
| O=C(OCc1ccccc1C(=O)O)c1ccccc1 | 118 to 124 °C |
| CN1C(=O)CN=C(c2ccccc2F)c2cc(NC(=O)NC(C)(C)C)ccc21 | 210 °C |
| Cc1ccc(OCCN2CCN(c3cc(Cl)nnc3Cl)CC2)cc1 | 95 to 96 °C |
